Test results taken from patent publication US11813306B2, “Cyclic tetramer compounds as proprotein convertase subtilisin/kexin type 9 (PCSK9) inhibitors for the treatment of metabolic disorders” (NOVARTIS AG, priority 2018, dated 2023).

Molecular target: human PCSK9 (Homo sapiens, UniProt Q8NBP7)
Experiment: PCSK9 ligand binding assay (TR-FRET): interference with binding of human PCSK9 to human LDLR
Conditions: for IC50: Human PCSK9 Alexa Fluor 647 / Human LDLR extracellular domain-Europium Kryptate; for Max % inhibition: efficacy (Amax), 100% = 1 uM unlabeled human PCSK9, 0% = DMSO
Summary of the method: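 Read-out was TR-FRET ratio (665 nm over 615 nm, 330 nm excitation) between Alexa Fluor 647-human PCSK9 (16 nM added) and Europium Kryptate-human LDLR ectodomain (4 nM added). Compound and PCSK9 were mixed 30 min before LDLR, then incubated 2 h. Inhibition was normalised to DMSO and unlabelled-PCSK9 controls, giving IC50 and Amax.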

Chain of human PCSK9 (Q8NBP7 153-692): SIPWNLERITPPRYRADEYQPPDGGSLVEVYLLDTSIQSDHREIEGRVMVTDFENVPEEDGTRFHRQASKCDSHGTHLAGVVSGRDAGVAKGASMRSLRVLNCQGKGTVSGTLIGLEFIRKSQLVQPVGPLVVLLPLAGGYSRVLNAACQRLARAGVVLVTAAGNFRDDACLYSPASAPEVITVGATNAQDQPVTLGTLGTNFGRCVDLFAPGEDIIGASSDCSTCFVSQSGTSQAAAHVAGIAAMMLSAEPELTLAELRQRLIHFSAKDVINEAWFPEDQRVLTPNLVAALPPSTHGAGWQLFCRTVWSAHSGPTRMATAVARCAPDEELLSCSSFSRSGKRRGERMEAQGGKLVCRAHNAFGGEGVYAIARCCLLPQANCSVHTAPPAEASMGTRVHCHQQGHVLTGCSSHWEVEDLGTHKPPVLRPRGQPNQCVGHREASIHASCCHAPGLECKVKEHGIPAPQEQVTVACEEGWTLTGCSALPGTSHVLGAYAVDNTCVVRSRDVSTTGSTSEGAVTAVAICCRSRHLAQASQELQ
Chain of human PCSK9 (Q8NBP7 31-152 partner limits assumed): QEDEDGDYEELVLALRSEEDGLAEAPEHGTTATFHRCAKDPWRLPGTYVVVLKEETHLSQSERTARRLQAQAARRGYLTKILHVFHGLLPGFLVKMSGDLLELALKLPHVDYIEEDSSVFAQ

Structure (SMILES)	IC50 [pM]	Max % inhibition [%]
C[C@H](c1ncc(-c2ccc(Oc3cc(Cl)ccc3CN3C(=O)C[C@@H]([C@@H]4CCc5ccccc54)C(=O)N4CCC[C@@](Cc5ccc(Cl)cc5)(C4)NC(=O)[C@H](CO)NC(=O)[C@@H]3C)cc2)n1C)N(C)C.Cl [Compound 70, (3S, 7S,10S, 13R)-6-(4-chloro-2-(4-(2-((R)-1-(dimethylamino)ethyl)-1-methyl-1H-imidazol-5-yl)phenoxy)benzyl)-13-(4-chlorobenzyl)-3-((S)-2,3-dihydro-1H-inden-1-yl)-10-(hydroxymethyl)-7-methyl-1,6,9,12-tetraazabicyclo[11.3.1]heptadecane-2,5,8,11-tetraone]	1480	110.7
C[C@H]1C(=O)N[C@@H](CO)C(=O)N(C)[C@@]2(Cc3ccc(Cl)cc3)CCCN(C2)C(=O)[C@H](Cc2ccccc2)CC(=O)N1Cc1ccc(Cl)cc1Oc1ccc(-c2cnc(CN(C)C)n2C)nc1 [Compound 71]	754	102.6
COC[C@@H]1NC(=O)[C@H](C)N(Cc2ccc(Cl)cc2Oc2ccc(-c3cnc(CN4CC[C@H](N(C)C)C4)n3C)cc2)C(=O)C[C@@H](Cc2ccccc2)C(=O)N2CCC[C@@](Cc3ccc(Cl)cc3)(C2)NC1=O.Cl [Compound 72, (3R, 7S, 10S, 13R)-3-benzyl-6-(4-chloro-2-(4-(2-(((S)-3-(dimethylamino)pyrrolidin-1-yl)methyl)-1-methyl-1H-imidazol-5-yl)phenoxy)benzyl)-13-(4-chlorobenzyl)-10-(methoxymethyl)-7-methyl-1,6,9,12-tetraazabicyclo[11.3.1]heptadecane-2,5,8,11-tetraone]	837	100.1
C[C@H]1C(=O)N[C@@H](CO)C(=O)N[C@@]2(Cc3ccc(Cl)cc3)CCCN(C2)C(=O)[C@H]([C@@H]2CCc3ccccc32)CC(=O)N1Cc1cc(F)ccc1Oc1ccc(-c2cnc(CN(C)C)n2C)cc1 [Compound 73]	1360	95.0
C[C@H]1C(=O)N[C@@H](CO)C(=O)N[C@@]2(Cc3ccc(Cl)cc3)CCCN(C2)C(=O)[C@H]([C@@H]2CCc3ccccc32)CC(=O)N1Cc1ccc(Cl)cc1Oc1ccc(-c2cnc(CN3CCCC3)n2C)cc1.Cl [Compound 74, (3S, 7S, 10S, 13R)-6-(4-chloro-2-(4-(1-methyl-2-(pyrrolidin-1-ylmethyl)-1H-imidazol-5-yl)phenoxy)benzyl)-13-(4-chlorobenzyl)-3-((S)-2,3-dihydro-1H-inden-1-yl)-10-(hydroxymethyl)-7-methyl-1,6,9,12-tetraazabicyclo[11.3.1]heptadecane-2,5,8,11-tetraone]	1730	99.1
C[C@H]1C(=O)N[C@@H](CO)C(=O)N[C@@]2(Cc3ccc(Cl)cc3)CCCN(C2)C(=O)[C@H](Cc2ccccc2)CC(=O)N1Cc1c(F)cc(F)cc1Oc1ccc(-c2cnc(CN3CCCC3)n2C)cc1 [Compound 75, (3R, 7S, 10S, 13R)-3-benzyl-13-(4-chlorobenzyl)-6-(2,4-difluoro-6-(4-(1-methyl-2-(pyrrolidin-1-ylmethyl)-1H-imidazol-5-yl)phenoxy)benzyl)-10-(hydroxymethyl)-7-methyl-1,6,9,12-tetraazabicyclo[11.3.1]heptadecane-2,5,8,11-tetraone]	758	113.3
COC[C@@H]1NC(=O)[C@H](C)N(Cc2ccc(Cl)cc2Oc2ccc(-c3cnc(CN4CCN(C)CC4)n3C)cc2)C(=O)C[C@@H](Cc2ccccc2)C(=O)N2CCC[C@@](Cc3ccc(Cl)cc3)(C2)NC1=O.Cl [Compound 76, (3R, 7S, 10S, 13R)-3-benzyl-6-(4-chloro-2-(4-(1-methyl-2-((4-methylpiperazin-1-yl)methyl)-1H-imidazol-5-yl)phenoxy)benzyl)-13-(4-chlorobenzyl)-10-(methoxymethyl)-7-methyl-1,6,9,12-tetraazabicyclo[11.3.1]heptadecane-2,5,8,11-tetraone]	810	101.7
